Experiments:
[1] = molecular target: DYRK1A kinase (Homo sapiens, UniProt Q13627); experiment: DYRK1A kinase activity (Ser/Thr 18 peptide Z-lyte FRET assay); type: biochemical; conditions: recombinant DYRK1A, 30 μM ATP, one hour at room temperature;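 note: kinase activity read as coumarin/fluorescein emission ratio after development step, with unphosphorylated and phosphorylated peptide forms setting 0% and 100% controls, values from dose-response curves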
[2] = molecular target: GSK3β kinase (Homo sapiens, UniProt P49841); experiment: GSK3β kinase activity (Ser/Thr 09 peptide Z-lyte FRET assay); type: biochemical; conditions: recombinant kinase, 46 μM ATP, one hour at room temperature; read-out: EC50
[3] = tested on: SW480 colon carcinoma cells; experiment: Cell viability assay (CellTiter-Glo); conditions: Homo sapiens; for EC50: SW480, 96 h; for inhibition at 10 µM: SW480, read-out: percent inhibition at 10 μM
[4] = tested on: Wnt-responsive Sp5-Luc reporter in SW480 colon carcinoma cells; experiment: Screening assay for Wnt activity (Sp5-Luc reporter gene assay); conditions: Homo sapiens; for EC50: SW480; for inhibition at 10 µM: SW480, read-out: percent inhibition at 10 μM
[5] = tested on: IL-6; experiment: IL-6 inhibition in LPS-stimulated human peripheral blood mononuclear cells (HTRF); conditions: Homo sapiens, PBMC; for EC50: 22 h; for inhibition at 10 µM: read-out: percentage in parentheses after EC50 >10
Description: Each compound was dissolved in DMSO (Catalog # D8418-100 ml, Sigma-Aldrich, St. Louis, Mo.) as a 10 mM stock and used to prepare compound source plates. […] After 22 hour incubation, a mixture of anti-IL6 XL665 and anti-IL-6 Cryptate diluted in reconstitution buffer (Catalog #62IL6PEC, Cisbio Inc., Bedford, Mass.) was added to each well. […] All samples were processed in duplicate. […] EC50 was determined using software generated by Dotmatics Limited (Windhill Bishops Stortford Herts, UK) using the Levenberg-Marquardt 4 parameter fitting procedure with finite different gradients.

[6] = tested on: α-smooth muscle actin (aSMA) positive LL29 cells; experiment: Inhibition of the fibrotic process: αSMA staining in TGF-β1 treated LL29 fibroblasts from IPF patients; conditions: Homo sapiens, Fibroblast; for EC50: 96 h; for inhibition at 10 µM: read-out: percentage in parentheses after EC50 >10
Description: Each compound was dissolved in DMSO as a 10 mM stock and used to prepare compound source plates. […] LL29 cells were plated at 1,500 cells/well in 70 μL/well F12 medium supplemented with 1% Fetal Bovine Serum. […] Wells treated with TGF-β1 and containing DMSO were used as positive control, and cells with only DMSO were negative control. Cells were incubated at 37° C. and 5% CO2 for 4 days. Following incubation for 4 days, SYTOX green nucleic acid stain (Life Technologies [Thermo Fisher Scientific]) was added to the wells at a final concentration of 1 μM and incubated at room temperature for 30 min. Cells were then fixed using 4% formaldehyde (Electron Microscopy Sciences), washed 3 times with PBS followed by blocking and permeabilization using 3% Bovine Serum Albumin (BSA; Sigma) and 0.3% Triton X-100 (Sigma) in PBS.

GSK3β kinase, sequence (P49841 whole entry): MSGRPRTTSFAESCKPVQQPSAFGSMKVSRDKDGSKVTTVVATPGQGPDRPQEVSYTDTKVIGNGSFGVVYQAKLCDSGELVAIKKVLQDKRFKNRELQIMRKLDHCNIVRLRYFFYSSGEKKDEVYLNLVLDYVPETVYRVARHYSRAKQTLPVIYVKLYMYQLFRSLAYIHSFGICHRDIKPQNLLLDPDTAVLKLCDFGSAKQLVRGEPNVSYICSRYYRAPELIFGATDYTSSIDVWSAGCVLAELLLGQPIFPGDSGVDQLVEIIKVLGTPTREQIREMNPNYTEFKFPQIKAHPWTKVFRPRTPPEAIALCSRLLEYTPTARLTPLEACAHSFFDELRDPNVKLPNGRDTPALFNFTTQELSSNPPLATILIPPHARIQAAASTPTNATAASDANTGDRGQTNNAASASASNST

| SMILES | EC50 [1] | EC50 [2] | EC50 [3] | EC50 [4] | EC50 [5] | inhibition at 10 µM [5] | EC50 [6] | inhibition at 10 µM [3] | inhibition at 10 µM [4] | inhibition at 10 µM [6] |
| --- | --- | --- | --- | --- | --- | --- | --- | --- | --- | --- |
| CN1CCN(c2cc(C(=O)Nc3cc4cc(-c5cnc(N)s5)cnc4cn3)ccn2)CC1 [Compound 3403, N-(3-(2-Aminothiazol-5-yl)-1,7-naphthyridin-6-yl)-2-(4-methylpiperazin-1-yl)isonicotinamide] | 0.581 µM | > 10 µM | 1.43 µM | 0.849 µM | > 10 µM | 1.8% | 2.43 µM |  |  |  |
| CO[C@H]1CC[C@H](C(=O)Nc2cc3cc(-c4nnc(C)s4)cnc3cn2)CC1 [Compound 3425, trans-4-Methoxy-N-(3-(5-methyl-1,3,4-thiadiazol-2-yl)-1,7-naphthyridin-6-yl)cyclohexane-1-carboxamide] | 0.157 µM | 2.29 µM | > 10 µM | > 10 µM | > 10 µM | 9% | > 10 µM | 29.9% | 0% | 19.3% |
| Cc1nnc(-c2cnc3cnc(NC(=O)C4CCN(C(=O)c5ccccc5)CC4)cc3c2)s1 [Compound 3439, 1-Benzoyl-N-(3-(5-methyl-1,3,4-thiadiazol-2-yl)-1,7-naphthyridin-6-yl) piperidine-4-carboxamide] | 0.1 µM | 0.463 µM | > 10 µM | > 10 µM | > 10 µM | 12.7% | > 10 µM | 16.8% | 2.1% | 14.3% |
| Cc1nnc(-c2cnc3cnc(NC(=O)CN4C5CCC4CC5)cc3c2)s1 [Compound 3446, 2-(7-Azabicyclo[2.2.1]heptan-7-yl)-N-(3-(5-methyl-1,3,4-thiadiazol-2-yl)-1,7-naphthyridin-6-yl)acetamide] | 2.09 µM | > 10 µM | > 10 µM | > 10 µM | > 10 µM | 5.8% | > 10 µM | 16.1% | 29.9% | 16.9% |
| Cc1nnc(-c2cnc3cnc(NC(=O)c4ccnc(N5CCN(C)CC5)c4)cc3c2)s1 [Compound 3470, N-(3-(5-Methyl-1,3,4-thiadiazol-2-yl)-1,7-naphthyridin-6-yl)-2-(4-methylpiperazin-1-yl)isonicotinamide] | 0.11 µM | > 10 µM | 3.96 µM | 5.48 µM | > 10 µM | 9.4% | 3.23 µM |  |  |  |
| Cc1nnc(-c2cnc3cnc(NC(=O)c4ccnc(SC5CCN(C)CC5)c4)cc3c2)s1 [Compound 3474, N-(3-(5-Methyl-1,3,4-thiadiazol-2-yl)-1,7-naphthyridin-6-yl)-2-((1-methylpiperidin-4-yl)thio)isonicotinamide] | 0.071 µM | > 10 µM | > 10 µM | > 10 µM | > 10 µM | 3.9% | > 10 µM | 17.1% | 1.9% | 37% |
| CN1CCN(c2cc(C(=O)Nc3cc4cc(-c5ccc(N)nc5)cnc4cn3)ccn2)CC1 [Compound 3527, N-(3-(6-Aminopyridin-3-yl)-1,7-naphthyridin-6-yl)-2-(4-methylpiperazin-1-yl)isonicotinamide] | 0.294 µM | > 10 µM | > 10 µM | > 10 µM | > 10 µM | 0% | 3.5 µM | 41.8% | 42.5% |  |
| O=C(Nc1cc2cc(-c3cncc(OCC4CNC4)n3)cnc2cn1)c1ccc(F)cc1 [Compound 3612, N-(3-(6-(Azetidin-3-ylmethoxy)pyrazin-2-yl)-1,7-naphthyridin-6-yl)-4-fluorobenzamide] | 0.487 µM | > 10 µM | 2.83 µM | 3.92 µM | 5.05 µM |  | 3.9 µM |  |  |  |
| Cn1cc(-c2cc3cc(NC(=O)C(C)(C)F)ncc3cn2)nn1 [Compound 3960, 2-Fluoro-2-methyl-N-(6-(1-methyl-1H-1,2,3-triazol-4-yl)-2,7-naphthyridin-3-yl)propanamide] | 1.01 µM | 1.5 µM | > 10 µM | > 10 µM | > 10 µM | 7% | > 10 µM | 38.5% | 44.8% | 23.5% |

From patent US10703748B2, “Diazanaphthalen-3-yl carboxamides and preparation and use thereof” (Samumed, LLC, priority 2017, dated 2020)
